In patent US20130203726A1, “FtsZ INHIBITORS AS POTENTIATORS OF BETA-LACTAM ANTIBIOTICS AGAINST METHICILLIN-RESISTANT STAPHYLOCOCCUS” (priority 2010, published 2013):
Like-named read-outs stand apart in the source and are kept apart here.

Legend:
MRSA COL [1] = test: Checkerboard assay (MIC, FIC index) against MRSA; type: cell-based, S. aureus
Description: (§1) The checkerboard method is the technique most frequently used to assess antimicrobial combinations in vitro. See Antibiotics in Laboratory Medicine Victor Lorian ed. 2005. The term. checkerboard refers to the pattern of microtiter wells formed by multiple dilutions of the two antimicrobials being tested in concentrations equal to, above and below their minimal inhibitory concentrations (MICs) against the organisms being tested. The checkerboard consists of columns in which each well contains the same amount of Drug A being two-fold diluted along the x-axis and rows in which each well contains the same amount of Drug B being two-fold diluted on the Y-axis. The result is that each well contains a unique combination of the two drugs being tested. Also tested is the antimicrobial activity of each agent singly.
(§2) The 96 well U-bottom polypropylene microtiter plates (Fisher Scientific, Pittsburgh, Pa.) were inoculated with 90 μl of bacterial cells (grown in Tryptic Soy Broth at 37° C. for 18 hours with rotary shaking) diluted in cation-adjusted Mueller Hinton broth to a final concentration of ˜5.5×10^5 CFU/mL.
(§3) β-lactam antibiotics were two-fold serially diluted along the Y-axis of 96-well U-bottom microtiter dishes (Fisher Scientific, Pittsburgh, Pa.) in microbiological growth media [brain heart infusion broth (BBL)]. FtsZ inhibitors were serially diluted along the X-axis of 96-well U-bottom microtiter dishes in microbiological growth media. The plates were inoculated with bacterial cells (grown in Trypticase Soy Broth at 37° C. for 18 hours with rotary shaking) to a final concentration of ˜5×10^5 CFU/mL. Test plates were incubated stationery at 37° C. for 22-24 hours.
(§4) The FIC index is most commonly used to report results of studies with antimicrobial combinations. In this method, the FIC for each drug is derived by dividing the concentration of that drug necessary to inhibit growth in a given combination by the MIC of the test organism for that drug alone. The FTC index (FICI) is then calculated by summing the separate FICs of the drugs present in that test well. Synergism is defined as an FTC index of 0.5.

MRSE CLB 26329 = test: Checkerboard assay (MIC, FIC index) against MRSE; type: cell-based, S. epidermidis
Description: as §1, §2, §3, §4

MRSA COL [2] = test: MRSA deep thigh infection model in neutropenic mice; type: in vivo, Staphylococcus aureus; conditions: for reduction of bacterial burden per thigh: 24 hr
Description: Female mice (20-25 g) were rendered neutropenic via intraperitoneal injection of cyclophosphamide (Mead Johnson Pharmaceuticals) four days (150 mg/kg) and one day (100 mg/kg) prior to experimental infection. Neutropenic mice were infected on Day 0 via intramuscular thigh injection of 0.1 ml containing ˜1-2×10^6 CPU Staphylococcus aureus (strain B, MRSA COL) from freshly grown culture broth. Two hours post thigh infection, mice were randomized and groups were administered increasing doses of PC190723 (50, 100, 200 mg/kg orally (p.o.), t.i.d ([…]); equivalent to 150, 300, and 600 mg/kg/24 hr) in the absence or presence of imipenem/cilastatin (10 mg/kg/50 mg/kg subcutaneously (s.c.), t.i.d. ([…]); equivalent to 30 mg/kg/24 hr and 150 mg/ kg/24 hr). Assay control groups included non-infected, vehicle-treated mice, vehicle-treated baseline infected (t=0 hr) mice, vehicle-treated 24 hr infected (t=24 hr) mice, and linezolid ((Zyvox IV solution, Bell Medical; 40 mg/kg orally (p.o.), b.i.d. ([…]) equivalent to 80 mg/kg/24 hr).
Twenty four hours post the initiation of therapy, mice were sacrificed, thighs aseptically removed, placed in 4 ml sterile phosphate buffered saline (Fisher Scientific), and homogenized using a Polytron (Brinkmann Instruments). Homogenates were serially 100-fold diluted in 9.9 ml sterile saline and plated on Mannitol Salt Agar plates. Plates were incubated at 35° C. for 48 hours and colony forming units (CFU) of bacteria remaining per thigh were determined.

[3] = test system: MRSA COL strains bearing xylose-regulated antisense fragments corresponding to FtsZ, FtsA, or FtsW; type: cell-based, Staphylococcus aureus; conditions: 50 mM xylose (antisense induced) versus no xylose, FtsZ-AS
Description: See Forsyth et al., 2002, Mol. Microbial 43:1387-1400 for details concerning plasmid and antisense interference construction. Strains were grown overnight in Luria Bertani (LB) Miller broth at 37° C. containing 34 μg/ml chloramphenicol. Assay plates were prepared by seeding 10^7 cells/ml of each culture into 48° C. cooled LB Miller agar containing 34 μg/ml chloramphenicol. To partially repress FtsZ expression, 50 mM xylose was supplemented to plates. This antisense inducer concentration modestly impairs growth of each strain equally, reflecting a 20% inhibitory growth concentration (i.e., xylose IC20˜50 mM).
The following antibiotics were then spotted on the surface of the plates: carbapenems, imipenem (12.8 μg) and ertapenem (51.2 μg); cephalosporins, cefepime (102.4 μg), ceftazidime (102.4 μg), and ceftriaxone (102.4 μg); and the β-lactam piperacillin (combined with the […] in a 8:1 molar ratio (25.6 μg). As a control, MRSA COL was identically tested but under conditions where no xylose was supplemented into the medium (i.e., non-repressed FtsZ) as well as by identically processing the MRSA COL strain transformed with pEPSA5 but lacking an antisense fragment (data not shown). As a control for the specificity of ftsZ, ftsA, and ftsW mutant susceptibility to β-lactams, the non-β-lactam cell wall antibiotic, vancomycin (0.8 μg) was additionally spotted. Plates were then incubated at 37° C. for 16 h and photographed.
The effect FtsZ, FtsA, or FtsW imparts on MRSA susceptibility to the above antibiotics was determined by comparing their zone of inhibition between plates supplemented with antisense inducer (50 mM xylose) versus those without xylose. Differential antibiotic zones of inhibition between FtsZ, FtsA, and FtsW antisense bearing strains grown under xylose induced versus non-induced conditions reflect Fts gene-dependent restoration of MRSA COL susceptibility to β-lactams.

[4] = FtsZ inhibitor in combination with amoxicillin, MRSA COL
[5] = FtsZ inhibitor in combination with cefazolin, MRSA COL
[6] = FtsZ inhibitor in combination with cefdinir, MRSA COL
[7] = FtsZ inhibitor in combination with cefazolin
[8] = FtsZ inhibitor in combination with cefepime, lowest achievable for PC190723

## NC(=O)c1c(F)ccc(OCc2nc3cc(Cl)cnc3s2)c1F [PC190723]
MRSA COL [1]; FtsZ inhibitor at FIC≦0.25 combined with imipenem, MRSA
  lower levels of imipenem required to inhibit growth: 16 fold
MRSA COL [1]; [4]
  FICI: 0.53
MRSA COL [1]; [5]
  FICI: 0.38
MRSA COL [1]; [6]
  FICI: 0.31
MRSA COL [1]; FtsZ inhibitor in combination with ertapenem at its clinical breakpoint (8 μg/ml), MRSA
  FICI: 0.5
MRSA COL [1]; FtsZ inhibitor in combination with imipenem at its clinical breakpoint (4 μg/ml), MRSA
  FICI: 0.31
MRSA COL [1]; MRSA
  FIC of the FtsZ inhibitor at which synergy with β-lactams was shown: 0.25
MRSA COL [1]; Staphylococcus aureus, agent alone, MRSA, read-out: minimal inhibitory concentration (MIC)
  MIC: 1 µg/mL
MRSA COL [1]; agent alone, MRSA, FIG. 5 legend, unit not given
  MIC: 1.0
MRSA COL [1]; combined with PC190723 at FIC=0.5, MRSA
  reduction of the effective inhibitory concentration of amoxicillin: ~32 fold
MRSE CLB 26329
  FIC of the FtsZ inhibitor at which synergy with β-lactams was shown: 0.25
MRSE CLB 26329; FtsZ inhibitor at FIC≦0.25 combined with imipenem
  lower levels of imipenem required to inhibit growth: 32 fold
MRSE CLB 26329; [7]
  FICI: 0.31
MRSE CLB 26329; [8]
  FICI: 0.28
MRSE CLB 26329; FtsZ inhibitor in combination with ertapenem at its clinical breakpoint (8 μg/ml)
  FICI: 0.5
MRSE CLB 26329; FtsZ inhibitor in combination with imipenem at its clinical breakpoint (4 μg/ml)
  FICI: 0.31
MRSE CLB 26329; Staphylococcus epidermidis, agent alone, read-out: minimal inhibitory concentration (MIC)
  MIC: 1 µg/mL
MRSE CLB 26329; agent alone, FIG. 5 legend, unit not given
  MIC: 1.0
MRSA COL [2]; 10 mg/kg imipenem + 200 mg/kg PC190723, linezolid 40 mg/kg p.o. b.i.d.
  antibacterial activity compared with linezolid: approaching linezolid-like antibacterial activity
MRSA COL [2]; PC190723 50 mg/kg p.o. t.i.d. + imipenem 10 mg/kg s.c. t.i.d., FIG. 7A
  reduction of bacterial burden per thigh: −0.4 Log 10 CFU
MRSA COL [2]; PC190723 100 mg/kg p.o. t.i.d. + imipenem 10 mg/kg s.c. t.i.d., FIG. 7A
  reduction of bacterial burden per thigh: −1.2 Log 10 CFU
MRSA COL [2]; PC190723 100 mg/kg p.o. t.i.d. + imipenem 10 mg/kg s.c. t.i.d., FIG. 7B
  reduction of bacterial burden per thigh: −1.9 Log 10 CFU
MRSA COL [2]; PC190723 200 mg/kg p.o. t.i.d. + imipenem 10 mg/kg s.c. t.i.d., FIG. 7A
  reduction of bacterial burden per thigh: −3.1 Log 10 CFU
MRSA COL [2]; PC190723 200 mg/kg p.o. t.i.d. + imipenem 10 mg/kg s.c. t.i.d., FIG. 7B
  reduction of bacterial burden per thigh: −2.6 Log 10 CFU
MRSA COL [2]; monotherapy over 24 hr, imipenem 10 mg/kg s.c. t.i.d. or PC190723 50, 100, 200 mg/kg p.o. t.i.d., neutropenic mice
  effect on MRSA COL bacterial burden in the thighs: did not significantly alter

## CC[C@H]1OC(=O)[C@H](C)[C@@H](O[C@H]2C[C@@](C)(OC)[C@@H](O)[C@H](C)O2)[C@H](C)[C@@H](O[C@@H]2O[C@H](C)C[C@H](N(C)C)[C@H]2O)[C@](C)(O)C[C@@H](C)CN(C)[C@H](C)[C@@H](O)[C@]1(C)O [azithromycin]
[3]
  change of susceptibility (zone of inhibition) on partial genetic inactivation of FtsZ, FtsA or FtsW: none of the FtsZ-AS, FtsA-AS, or FtsW-AS strains demonstrated altered hypersensitivity

## C/C=C/C/C=C/CCC(=O)[C@H]1O[C@H]1C(N)=O [cerulenin]
[3]
  change of susceptibility (zone of inhibition) on partial genetic inactivation of FtsZ, FtsA or FtsW: none of the FtsZ-AS, FtsA-AS, or FtsW-AS strains demonstrated altered hypersensitivity

## O=C(O)c1cn(C2CC2)c2cc(N3CCNCC3)c(F)cc2c1=O [ciprofloxacin]
[3]
  change of susceptibility (zone of inhibition) on partial genetic inactivation of FtsZ, FtsA or FtsW: none of the FtsZ-AS, FtsA-AS, or FtsW-AS strains demonstrated altered hypersensitivity

## CC(=O)NC[C@H]1CN(c2ccc(N3CCOCC3)c(F)c2)C(=O)O1 [linezolid]
[3]
  change of susceptibility (zone of inhibition) on partial genetic inactivation of FtsZ, FtsA or FtsW: none of the FtsZ-AS, FtsA-AS, or FtsW-AS strains demonstrated altered hypersensitivity

## COc1cc(Cc2cnc(N)nc2N)cc(OC)c1OC [trimethoprim]
[3]
  change of susceptibility (zone of inhibition) on partial genetic inactivation of FtsZ, FtsA or FtsW: none of the FtsZ-AS, FtsA-AS, or FtsW-AS strains demonstrated altered hypersensitivity

## CN[C@H](CC(C)C)C(=O)N[C@H]1C(=O)N[C@@H](CC(N)=O)C(=O)N[C@H]2C(=O)N[C@H]3C(=O)N[C@H](C(=O)N[C@H](C(=O)O)c4cc(O)cc(O)c4-c4cc3ccc4O)[C@H](O)c3ccc(c(Cl)c3)Oc3cc2cc(c3O[C@@H]2O[C@H](CO)[C@@H](O)[C@H](O)[C@H]2O[C@H]2C[C@](C)(N)[C@H](O)[C@H](C)O2)Oc2ccc(cc2Cl)[C@H]1O [vancomycin]
[3]
  change of susceptibility (zone of inhibition) on partial genetic inactivation of FtsZ, FtsA or FtsW: none of the FtsZ-AS, FtsA-AS, or FtsW-AS strains demonstrated altered hypersensitivity

## Zantrin Z3
MRSA COL [1]; FtsZ inhibitor at FIC≦0.25 combined with cefazolin, MRSA
  lower levels of cefazolin required to inhibit growth: 16 fold
MRSA COL [1]; [4]
  FICI: no synergy was detected
MRSA COL [1]; [5]
  FICI: 0.25
MRSA COL [1]; [6]
  FICI: 0.5
MRSA COL [1]; FtsZ inhibitor in combination with cefepime, MRSA COL
  FICI: 0.25
MRSA COL [1]; FtsZ inhibitor in combination with ceftazidime, MRSA COL
  FICI: 0.28
MRSA COL [1]; agent alone, MRSA
  minimal inhibitory concentration (MIC): 8−16.0 μg/ml
MRSE CLB 26329; FtsZ inhibitor at FIC≦0.25 combined with cefazolin
  lower levels of cefazolin required to inhibit growth: 16 fold
MRSE CLB 26329; FtsZ inhibitor in combination with amoxicillin
  FICI: 0.28
MRSE CLB 26329; [7]
  FICI: 0.31
MRSE CLB 26329; FtsZ inhibitor in combination with cefdinir
  FICI: 0.27
MRSE CLB 26329; [8]
  FICI: 0.16
MRSE CLB 26329; FtsZ inhibitor in combination with ceftazidime
  FICI: 0.50
MRSE CLB 26329; agent alone
  minimal inhibitory concentration (MIC): 8−16.0 μg/ml
MRSE CLB 26329; amoxicillin paired with Z3
  fraction of normal amoxicillin concentration needed to display MRSE efficacy: 1/16
MRSE CLB 26329; cefdinir paired with Z3
  reduced cefdinir concentration to restore anti-MRSE activity: 64 fold
